The subject of the assay is 138582-337-R-J1-PDC complex spheroid viability. In words: Anticancer human tumor 138582-337-R-J1-PDC patient-derived Merkel cell tumor cell line growth inhibition. The following applies: for viability, T/C: stronger effect = lower value. In a few lines:
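Complex spheroids of tumor cells with HUVEC and human MSCs, exposed to iadademstat combined with other agents. Each agent tested in half-log steps from near clinical Cmax (else 10 microM top), DMSO ≤0.25%.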

Setting [1] is: curve of first compound, second compound 0.1 µM.
The mark [2] stands for this setting: curve of first compound, second compound 0.316 µM.
Where [3] appears, read: curve of first compound, second compound 1 µM.
Setting [4] is: curve of first compound, second compound 3.16 µM.
[5] abbreviates: curve of first compound, second compound 10 µM.
The mark [6] stands for this setting: second compound 0.1 µM, first compound 0.00949 µM.
Setting [7] is: second compound 0.1 µM, first compound 0.03 µM.
[8] abbreviates: second compound 0.1 µM, first compound 0.0949 µM.
Where [9] appears, read: second compound 0.1 µM, first compound 0.3 µM.
The mark [10] stands for this setting: second compound 0.1 µM, first compound 0.949 µM.
The mark [11] stands for this setting: second compound 0.1 µM, first compound 3 µM.
[12] abbreviates: second compound 0.316 µM, first compound 0.00949 µM.
The mark [13] stands for this setting: second compound 0.316 µM, first compound 0.03 µM.
Setting [14] is: second compound 0.316 µM, first compound 0.0949 µM.
[15] abbreviates: second compound 0.316 µM, first compound 0.3 µM.
[16] abbreviates: second compound 0.316 µM, first compound 0.949 µM.
[17] abbreviates: second compound 0.316 µM, first compound 3 µM.
[18] abbreviates: second compound 1 µM, first compound 0.00949 µM.
Where [19] appears, read: second compound 1 µM, first compound 0.03 µM.
Setting [20] is: second compound 1 µM, first compound 0.0949 µM.
The mark [21] stands for this setting: second compound 1 µM, first compound 0.3 µM.
[22] abbreviates: second compound 1 µM, first compound 0.949 µM.
The mark [23] stands for this setting: second compound 1 µM, first compound 3 µM.
[24] abbreviates: second compound 3.16 µM, first compound 0.00949 µM.
Setting [25] is: second compound 3.16 µM, first compound 0.03 µM.
The mark [26] stands for this setting: second compound 3.16 µM, first compound 0.0949 µM.
[27] abbreviates: second compound 3.16 µM, first compound 0.3 µM.
Where [28] appears, read: second compound 3.16 µM, first compound 0.949 µM.
Where [29] appears, read: second compound 3.16 µM, first compound 3 µM.
Where [30] appears, read: second compound 10 µM, first compound 0.00949 µM.
[31] abbreviates: second compound 10 µM, first compound 0.03 µM.
The mark [32] stands for this setting: second compound 10 µM, first compound 0.0949 µM.
Setting [33] is: second compound 10 µM, first compound 0.3 µM.
Setting [34] is: second compound 10 µM, first compound 0.949 µM.
[35] abbreviates: second compound 10 µM, first compound 3 µM.

For five molecules, IC50 and viability, T/C results are on record in PubChem BioAssay AID1918931 (Molecular Pharmacology Branch, DTP, NCI, 2023).

For orientation: pIC50 means −log10 of the IC50, conventionally taken in molar units. By viability, T/C is commonly meant the ratio of treated to control.

pIC50: −log10 of the molar value. Where “and” joins values, the source holds several entries; their conditions need not be identical. Equal entries are not always repeated.
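Throughout, for viability, T/C: 100% = DMSO vehicle control viability.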

Take `Nc1ccccc1NC(=O)c1ccc(CNC(=O)OCc2cccnc2)cc1` + NC1CC1c1ccc(-c2cccc(O)c2)cc1: the negative logarithm of the IC50 (pIC50) is 6.49 under setting [1]; 6.45 under setting [2]; 6.41 under setting [3]; 6.51 under setting [4]; 6.58 under setting [5]. Moreover, the viability, T/C is, setting by setting: under setting [6], 86.8%; under setting [7], 72.7%; under setting [8], 78.6%; under setting [9], 53%; under setting [10], 7.55%; under setting [11], 0.52%. For the same molecule, the viability, T/C is 71.1% under setting [12]; 76.6% under setting [13]; 76.6% under setting [14]; 57.4% under setting [15]; 6.5% under setting [16]; 0.75% under setting [17]. Moreover, the viability, T/C is, setting by setting: under setting [18], 72.1%; under setting [19], 53%; under setting [20], 79.3%; under setting [21], 62.6%; under setting [22], 6.82%; under setting [23], 0.31%. Besides, the viability, T/C runs as follows: under setting [24], 74.5%; under setting [25], 77%; under setting [26], 80.9%; under setting [27], 50.8%; under setting [28], 6.44%; under setting [29], 0.64%. In addition, the viability, T/C runs as follows: under setting [30], 79.8%; under setting [31], 70.2%; under setting [32], 61.5%; under setting [33], 50.1%; under setting [34], 4.95%; under setting [35], 0.46%.

Take `COc1cc(C2c3cc4c(cc3C(OC3OC5COC(C)OC5C(O)C3O)C3COC(=O)C23)OCO4)cc(OC)c1O` (centres undefined) + NC1CCC(NC2CC2c2ccccc2)CC1: the pIC50 by setting is: under setting [1], below 5.52; under setting [2], below 5.52; under setting [3], below 5.52; under setting [4], below 5.52; under setting [5], below 5.52. Besides, the viability, T/C under setting [6] is 105%; the viability, T/C under setting [7] was 89.8%; the viability, T/C under setting [8] was 67.3%; the viability, T/C under setting [9] is 69.4%; the viability, T/C under setting [10] is 70.3%; the viability, T/C under setting [11] was 66.4%. In addition, the viability, T/C was 102% under setting [12]; 76.3% under setting [13]; 85.4% under setting [14]; 85.8% under setting [15]; 74% under setting [16]; 60.7% under setting [17]. For the same molecule, the viability, T/C is 90.8% under setting [18]; 95.3% under setting [19]; 76% under setting [20]; 68.7% under setting [21]; 94.1% under setting [22]; 85.2% under setting [23]. Further, the viability, T/C is 82.6% under setting [24]; 87.3% under setting [25]; 85.1% under setting [26]; 71.6% under setting [27]; 69.1% under setting [28]; 95.3% under setting [29]. Besides, the viability, T/C is 73.8% under setting [30]; 81.6% under setting [31]; 75.3% under setting [32]; 82% under setting [33]; 65.5% under setting [34]; 56.7% under setting [35].

With `CCc1c2c(nc3ccc(O)cc13)-c1cc3c(c(=O)n1C2)COC(=O)[C@]3(O)CC` + NC1CCC(NC2CC2c2ccccc2)CC1, the pIC50 by setting is: under setting [1], 7.92; under setting [2], 7.94; under setting [3], 8.00; under setting [4], 7.92; under setting [5], 7.97. Besides, the viability, T/C is, setting by setting: (second compound 0.1 µM, first compound 0.000949 µM) 91.7%; (second compound 0.1 µM, first compound 0.003 µM) 87.9%; under setting [6], 57.5%; under setting [7], 18.6%; under setting [8], 0.42%; under setting [9], 0.49%. Further, the viability, T/C is 85.1% (second compound 0.316 µM, first compound 0.000949 µM); 84.6% (second compound 0.316 µM, first compound 0.003 µM); 55.1% under setting [12]; 18.2% under setting [13]; 0.45% under setting [14]; 0.5% under setting [15]. The viability, T/C is 80.9% (second compound 1 µM, first compound 0.000949 µM); 78.7% (second compound 1 µM, first compound 0.003 µM); 51.5% under setting [18]; 14.5% under setting [19]; 0.38% under setting [20]; 0.35% under setting [21]. Further, the viability, T/C by setting is: (second compound 3.16 µM, first compound 0.000949 µM) 78.3%; (second compound 3.16 µM, first compound 0.003 µM) 75.1%; under setting [24], 58.9%; under setting [25], 17.6%; under setting [26], 0.39%; under setting [27], 0.54%. The viability, T/C (second compound 10 µM, first compound 0.000949 µM) is 68.8%; the viability, T/C (second compound 10 µM, first compound 0.003 µM) is 68.9%; the viability, T/C under setting [30] is 54.2%; the viability, T/C under setting [31] was 9.4%; the viability, T/C under setting [32] is 0.34%; the viability, T/C under setting [33] is 0.52%.

Consider `COc1cc(C2c3cc4c(cc3C(OC3OC5COC(C)OC5C(O)C3O)C3COC(=O)C23)OCO4)cc(OC)c1O` (centres undefined), for which the viability, T/C by setting is: (compound 0.00949 µM) 81.8% and 78.6%; (compound 0.03 µM) 73.6% and 82.9%; (compound 0.0949 µM) 78% and 57.8%; (compound 0.3 µM) 77.3% and 50.9%; (compound 0.949 µM) 73.4% and 48.3%; (compound 3 µM) 74.7% and 34.3%. Also, the pIC50 (curve of compound) was < 5.52 and 6.44.

In the case of `O=C(C=Cn1cnc(-c2cc(C(F)(F)F)cc(C(F)(F)F)c2)n1)NNc1cnccn1`, the viability, T/C runs as follows: (compound 0.00316 µM) 79.5% and 60.6%; (compound 0.01 µM) 49.6% and 56.1%; (compound 0.0316 µM) 24.6% and 29.2%; (compound 0.1 µM) 15.6% and 17.7%; (compound 0.316 µM) 18.6% and 17.6%; (compound 1 µM) 16.4% and 15.4%. Moreover, the pIC50 (curve of compound) was 8.00 and 7.89.
